Laboratory results: patent publication US10144944B2, “Methods of cell culture” (Momenta Pharmaceuticals, Inc., priority 2013, dated 2018)
Where two headings read alike, the source gives them in different places.

How the values were obtained:
[1] = system: model antibody produced by CHO cells
Protocol: (§1) The effect of putrescine on antibody glycoforms of a model antibody produced by CHO cells was analyzed. CHO cells genetically engineered to express the antibody were grown initially in base media (Power CHO2, Catalog #BE15-771, Lonza Inc., Allendale, N.J.). Cells were then inoculated (at 0.55×10^6 cells/mL) into a chemically defined medium containing 0.17 mg/L, 0.35 mg/L, or […] putrescine 2HCl and cultured as a batch culture in TPP tubespins for 7 days.
(§2) Cell viability was assessed on day 4 using a hemocytometer using cells stained with trypan blue. Titer was determined from the day-7 cultures by protein A affinity HPLC. Relative quantitation of each glycoform was performed on purified protein using Chip ToF. Chip ToF uses mass spectrometry to measure the extracted ion chromatogram (XIC) area for each species after chip-based enzymatic removal and purification of N-glycans, relative to the total XIC for detected species (see, e.g., mAb-Glyco Chip Kit, Agilent Technologies).

[2] = system: CHO cells genetically engineered to express the antibody; details: for Product titer: day-7 batch culture; for viable cell density (VCD): day 4
Protocol: as §1, §2

[3] = with increasing levels of putrescine, FIG. 4
[4] = with increasing putrescine, FIG. 3

NCCCCN [putrescine]
relative change in G0F, G1F, and G2F ([1]; 0.52 mg/L putrescine compared to 0.17 mg/L putrescine, FIG. 3): about 10% | putrescine level above which effect on fucosylated glycans saturates ([1]; non-linear relationship, FIG. 2): above 0.35 mg/mL | fraction of fucosylated glycans ([1]; with increasing levels of putrescine (0.17-0.52 mg/L), FIG. 2): increased | high mannose glycans [1, 3]: reduced | level of sialylated glycans [1, 3]: increased | level of galactosylation ([1]; with increasing putrescine): increase | levels of G0F [1, 4]: reduced | levels of G1F [1, 4]: increased | levels of G2F [1, 4]: increased | Product titer ([2]; 0.17 mg/L putrescine in medium): 40 mg/L | viable cell density (VCD) ([2]; 0.17 mg/L putrescine): 1.5×10^6 cells/mL | Product titer ([2]; 0.35 mg/L putrescine in medium): 58 mg/L | viable cell density (VCD) ([2]; 0.35 mg/L putrescine): 1.8×10^6 cells/mL | Product titer ([2]; 0.52 mg/L putrescine in medium): 73 mg/L | viable cell density (VCD) ([2]; 0.52 mg/L putrescine): 2.2×10^6 cells/mL
